Experimental data published in patent US12102682B1, “Injectable photothermal hydrogel based on melanin, preparation method, and application thereof” (OCEAN UNIVERSITY OF CHINA, priority 2023, dated 2024).
Counter-ions that a name gives are not always drawn.

Experiment: Body weight, organ index and HE histopathology of treated mice
Format: in vivo
Conditions: for Change in body weight: tumor-bearing mice, intratumoral injection, 14 days, DOX 5 mg/kg, ICG 1 mg/kg, LASER groups 808 nm 1 W/cm^2 5 min
Procedure: Thirty female mice were randomly divided into 6 groups with 5 mice per group: (1) a saline group: injection of saline only; (2) a DOX group (5 mg/kg): injection of DOX; (3) a GEL/LASER group: a combined effect of the HPCS/MP hydrogel and NIR light irradiation; (4) a GEL/DOX (5 mg/kg) group: an effect of the HPCS/MP hydrogel encapsulating DOX·HCL; (5) a GEL/DOX (5 mg/kg)/LASER group: a combined effect of HPCS/MP hydrogel encapsulating DOX·HCL and NIR light irradiation, and (6) an indocyanine green (ICG) (1 mg/kg) group: injection of ICG. The different groups of mice were injected with 100 μL of saline, DOX, ICG, an HPCS/MP hydrogel precursor solution, and a GEL/DOX hydrogel precursor solution by intratumoral injection.
In the laser irradiation group LASER was irradiated for 5 min using an laser of 808 nm at a power of 1 W/cm^2 on days 2, 4, 6, 8, 10, and 12 after drug administration, and an irradiated site was a tumor site visible to naked eyes, with a light source positioned 5 cm from a body surface. The date of irradiation was designated as day 1, and an observation period extended to 14 days. A tumor volume was measured with a vernier caliper and a weight of the mice was weighed using an electronic balance every two days, and then a curve of the tumor volume, the body weight, and time was plotted. On the 14th day, the mice were euthanized, and axillary tumor bodies and tissues of the heart, liver, spleen, lung, and kidney of the mice were collected. The weights of the tumors and organ tissues of the various groups were accurately measured and recorded to calculate a tumor inhibition rate and an organ index of each group. Then immunohistochemistry and HE staining were performed for pathological analysis.

Structure (SMILES)	HE staining of liver sections compared with control group (mice, 14th day)	HE staining of lung tissues (mice, 14th day)	HE staining of renal tissue sections (mice, 14th day)	HE staining of spleen tissues compared with control group (mice, 14th day)	Liver index compared to control group (mice, 14th day)	Change in body weight
COc1cccc2c1C(=O)c1c(O)c3c(c(O)c1C2=O)C[C@@](O)(C(=O)CO)C[C@@H]3O[C@H]1C[C@H](N)[C@H](O)[C@H](C)O1 [DOX, doxorubicin hydrochloride]	very loose	some degree of damage	some slight damage	tissues became loose	significantly reduced	significant downward trend in the body weight
CC1(C)C(/C=C/C=C/C=C/C=C2\N(CCCCS(=O)(=O)O)c3ccc4ccccc4c3C2(C)C)=[N+](CCCCS(=O)(=O)[O-])c2ccc3ccccc3c21 [ICG, indocyanine green]	slight loosening					decrease trend in the body weight
